Data from ChEMBL document CHEMBL1201862, “PubChem BioAssay data set” (2004).
Several values for one entry are separate records, joined by “and”; a condition that tells them apart may be missing. Equal values may be shown once.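 Compound exposure: 48 hours, 5 concentrations, 96-well plates. GI50 marks 50% less growth.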 Activity calls are given as the source filed them. Rule as the data show it: active = GI50 up to about 1.1 µM and inactive = higher. Non-standard residues stand in square brackets, D forms with d. Residues, ends and D or L forms follow the SMILES beside them. ξ: configuration not given here. *: point of attachment. NMeF = CN[C@@H](Cc1ccccc1)C(=O)O; ξNMeV = CNC(C(=O)O)C(C)C; Boc = CC(C)(C)OC(=O)*; OBn = c1ccc(CO*)cc1

Tests used:
Experiment in all cases: DTP human tumour cell line panel, 48 h
[1] = tested on: ACHN
[2] = tested on: UACC-62
[3] = tested on: KM-20L2
[4] = tested on: SR
[5] = tested on: OVCAR-4
[6] = tested on: OVCAR-8
[7] = tested on: UACC-257
[8] = tested on: 786-0
[9] = tested on: A498
[10] = tested on: KM12
[11] = tested on: CAKI-1
[12] = tested on: SNB-75
[13] = tested on: HT-29
[14] = tested on: HCT-116
[15] = tested on: SK-MEL-2
[16] = tested on: UO-31
[17] = tested on: RPMI-8226

Measured: GI50

C=CCn1c(=S)sc2c(O)ncnc21
inactive: [1] > 100 µM | [2] > 100 µM | [3] > 100 µM | [4] > 100 µM | [5] > 100 µM | [6] > 100 µM | [7] > 100 µM | [8] > 100 µM | [9] > 100 µM | [10] > 100 µM | [11] > 100 µM | [12] 61.2 µM | [13] > 100 µM | [14] > 100 µM | [15] > 100 µM | [16] > 100 µM

Sc1nnc(-c2cccnc2)[nH]1
inactive: [17] > 100 µM | [1] > 100 µM | [3] > 100 µM | [4] > 100 µM | [7] > 100 µM | [8] > 100 µM | [9] > 100 µM | [10] > 100 µM | [12] > 100 µM | [13] > 100 µM | [14] > 100 µM | [15] > 100 µM

COC(=O)C(Cc1nc2ccccc2nc1C)/C(=N\NC(N)=O)C(=O)Nc1cccc([N+](=O)[O-])c1 (stereo unspecified)
inactive: [17] > 100 µM | [1] > 100 µM | [2] 45.2 µM | [3] > 100 µM | [4] 24.4 µM | [5] > 100 µM | [6] 80.7 µM | [7] > 100 µM | [8] > 100 µM | [9] > 100 µM | [10] 95.9 µM | [11] > 100 µM | [12] > 100 µM | [13] > 100 µM | [14] > 100 µM | [15] > 100 µM | [16] > 100 µM

Cc1ccc(N2C(=O)/C(=C3\Sc4c(nc(C)[nH]c4=O)N3c3ccccc3)SC2=S)cc1
inactive: [17] > 100 µM | [1] 28.8 µM | [2] > 100 µM | [3] > 100 µM | [5] 29.2 µM | [6] 34.6 µM | [7] > 100 µM | [8] 10.4 µM | [9] 34.4 µM | [11] > 100 µM | [12] 16.1 µM | [13] 68.9 µM | [14] 60.3 µM | [15] 20.3 µM | [16] 29.2 µM

CCOC(=O)/C(=C/c1cccc(OC)c1)N(CC)CC
inactive: [17] > 100 µM | [1] > 100 µM | [2] > 100 µM | [3] > 100 µM | [4] > 100 µM | [5] > 100 µM | [6] > 100 µM | [7] > 100 µM | [8] > 100 µM | [9] > 100 µM | [10] > 100 µM | [11] > 100 µM | [13] > 100 µM | [14] > 100 µM | [15] > 100 µM | [16] > 100 µM

C=CCCCCCC(O)C(O)C/C=C\C/C=C\CC (stereo unspecified)
inactive: [17] > 18.8 µM | [1] > 18.8 µM | [2] > 18.8 µM | [3] > 18.8 µM | [4] > 9.66 µM | [5] > 18.8 µM | [6] > 18.8 µM | [7] > 18.8 µM | [8] > 18.8 µM | [10] > 18.8 µM | [11] > 18.8 µM | [12] > 18.8 µM | [13] > 18.8 µM | [14] > 18.8 µM | [15] > 18.8 µM | [16] > 18.8 µM

O=C1c2ccccc2N2OC3(N4CCCC4)CCCC3C12c1ccccc1 (stereo unspecified)
inactive: [17] 62.8 µM | [1] > 100 µM | [2] 74.3 µM | [3] > 100 µM | [4] 59.4 µM | [5] 29.6 µM | [6] > 100 µM | [7] 71.6 µM | [8] > 100 µM | [9] > 100 µM | [12] > 100 µM | [13] > 100 µM | [14] 73.3 µM | [16] > 100 µM

COc1cccc2c(SCC(=O)Nc3ccccc3-c3ccccc3NC(=O)CSc3c4ccccc4nc4c(OC)cccc34)c3ccccc3nc12
inactive: [1] > 100 µM | [2] 38.6 µM | [3] > 100 µM | [4] 76.9 µM | [5] > 100 µM | [6] > 100 µM | [8] > 100 µM | [10] > 100 µM | [12] 17.5 µM | [13] > 100 µM | [14] > 100 µM | [15] > 100 µM

CCOC(=O)c1cnc2[nH]c(=O)c3ccccc3n2c1=O
inactive: [17] > 100 µM | [1] > 100 µM | [2] > 100 µM | [3] > 100 µM | [4] > 100 µM | [5] > 100 µM | [6] > 100 µM | [7] > 100 µM | [8] > 100 µM | [10] > 100 µM | [11] > 100 µM | [12] > 100 µM | [13] > 100 µM | [14] > 100 µM | [15] > 100 µM | [16] > 100 µM

CC1=C(C(=O)Nc2c(C)cccc2C)C(c2ccc3c(c2)OCO3)C(C(=O)Nc2c(C)cccc2C)=C(C)N1
inactive: [1] 17.5 µM | [2] 2.7 µM | [3] 15.5 µM | [4] 22.5 µM | [5] 30.3 µM | [6] 18.1 µM | [7] 16.6 µM | [8] 13.7 µM | [10] 15.3 µM | [11] 25.1 µM | [12] 17.8 µM | [13] 16.2 µM | [14] 14.3 µM | [16] 16.9 µM

CCCCCC(CN1CCOCC1)C(=O)/C=C/c1ccccc1 (stereo unspecified)
inactive: [17] 2.11 µM | [2] 1.46 µM | [3] 3.03 µM | [4] 1.95 µM | [5] 2.95 µM | [7] 2.96 µM | [8] 1.76 µM | [10] 1.76 µM | [12] 7.13 µM | [13] 2.67 µM | [14] 1.75 µM | [16] 6.61 µM

O=S(O)CCCCSSCC(O)C(O)CSSCCCCS(=O)O (stereo unspecified)
inactive: [17] 13.5 µM and 11.8 µM | [1] 26.1 µM and 22.1 µM | [2] 12.9 µM and 8.73 µM | [3] > 100 µM and 50.6 µM | [5] 10.7 µM and 5.66 µM | [6] 30.1 µM and 22.2 µM | [7] 8.39 µM and 4.7 µM | [8] > 100 µM | [9] 64.3 µM and 61.9 µM | [10] 21.2 µM and 15 µM | [11] 51.6 µM and 56.9 µM | [12] 12 µM and 17.3 µM | [13] 13.5 µM and 9.16 µM | [15] 17.4 µM and 15 µM | [16] 16.7 µM and 9.33 µM

CC(C)C(C(=O)N1CCC[C@@H]1C(=O)OCc1ccccc1)N(C)C(=O)C(C(C)C)N(C)C(=O)[C@H](Cc1ccccc1)N(C)C(=O)[C@H](NC(=O)OC(C)(C)C)C(C)C (stereo partly specified) (Boc-[dV][NMeF][ξNMeV][ξNMeV][dP]-OBn)
inactive: [17] 10.9 µM | [1] 16.7 µM | [2] > 100 µM | [3] > 100 µM | [4] > 29.8 µM | [5] > 54.2 µM | [6] > 100 µM | [7] 13.6 µM | [8] > 100 µM | [9] > 100 µM | [10] > 80.7 µM | [12] 9.91 µM | [13] > 45.4 µM | [14] 14.5 µM | [15] > 100 µM | [16] > 29.2 µM
